The test system of this series is GENE-TOX genotoxicity assays, various organisms and cells. As to the kind of experiment: GENE-TOX mutagenicity studies. The note with it: for call: Assay Type: In vivo carcinogenicity studies.
Setting [1] is: Species/Cell Type: Human, Sex: Male, Assay Type: Sperm morphology, Assay Code: SPH+, Evaluation Type: Evaluation A (Pre-1980).
Where [2] appears, read: Species/Cell Type: Bacillus subtilis (H17 vs M45), Assay Type: Rec-assay, spot test, DNA effects (bacterial DNA repair), Assay Code: REWT, Evaluation Type: Evaluation A (Pre-1980).
The mark [3] stands for this setting: Species/Cell Type: Bacillus subtilis (H17 vs M45), Assay Type: Rec-assay, spot test, DNA effects (bacterial DNA repair), Assay Code: REW+, Evaluation Type: Evaluation A (Pre-1980).
Where [4] appears, read: Species/Cell Type: Human lymphocytes, Assay Type: Sister-chromatid exchange (SCE) in vitro, Assay Code: SCL+D, Dose Response: With dose response, Evaluation Type: Evaluation B (Post-1980).
Setting [5] is: Species/Cell Type: Human, Assay Type: Sister-chromatid exchange (SCE) in vitro, Assay Code: SC1+D, Dose Response: With dose response, Evaluation Type: Evaluation B (Post-1980).
Where [6] appears, read: Species/Cell Type: Nonhuman, Assay Type: Sister-chromatid exchange (SCE) in vitro, Assay Code: SC2+, Evaluation Type: Evaluation B (Post-1980).
[7] abbreviates: Species/Cell Type: Syrian hamster embryo (SA7/SHE) cells, Assay Type: Cell transformation, viral enhanced, Assay Code: CT7+, Evaluation Type: Evaluation A (Pre-1980).
[8] abbreviates: Species/Cell Type: Salmonella typhimurium (one or more of the five standard strains: TA98, TA100, TA1535, TA1537, and TA1538), Assay Type: Histidine reverse gene mutation, Ames assay, Assay Code: SAL-, Evaluation Type: Evaluation A (Pre-1980).
[9] abbreviates: Species/Cell Type: Nonhuman, Assay Code: CCG+L, Evaluation Type: Evaluation A (Pre-1980).
Setting [10] is: Species/Cell Type: Saccharomyces cerevisiae, Assay Type: Mitotic recombination or gene conversion, Assay Code: YEH-, Evaluation Type: Evaluation A (Pre-1980).
Where [11] appears, read: Species/Cell Type: Salmonella typhimurium (one or more of the five standard strains: TA98, TA100, TA1535, TA1537, and TA1538), Assay Type: Histidine reverse gene mutation, Ames assay, Assay Code: SAL+, Evaluation Type: Evaluation A (Pre-1980).

Activity calls are given as the source filed them. How the calls were made is not given here.

As for `[Pb]`, the mutagenic call by setting is: (Species/Cell Type: Human lymphocytes or leukocytes, Assay Type: Chromosome aberrations in vitro, Assay Code: CY7-, Evaluation Type: Evaluation A (Pre-1980)) “inactive; negative”; (Species/Cell Type: Human lymphocytes or leukocytes, Assay Type: Chromosome aberrations in vivo, Assay Code: CY8T, Evaluation Type: Evaluation A (Pre-1980)) “no conclusion”; under setting [1], “active; positive”; (Species/Cell Type: Nonhuman bone marrow, Assay Type: Chromosome aberrations, in vivo, Assay Code: CY#-, Evaluation Type: Evaluation A (Pre-1980)) “inactive; negative”. In addition, the call (Species/Cell Type: Nonhuman, Assay Code: CCGT, Evaluation Type: Evaluation A (Pre-1980)) is “no conclusion”.
Regarding `C=CCc1ccccc1O`, the mutagenic call (Species/Cell Type: Human lymphocytes, Assay Type: Sister-chromatid exchange (SCE) in vitro, Assay Code: SCLT, Evaluation Type: Evaluation B (Post-1980)) is “no conclusion” and the mutagenic call (Species/Cell Type: Human, Assay Type: Sister-chromatid exchange (SCE) in vitro, Assay Code: SC1T, Evaluation Type: Evaluation B (Post-1980)) was “no conclusion”.
In the case of `O=BOO`, the mutagenic call (Species/Cell Type: Escherichia coli polA (W3119 vs P3478), Assay Type: Rec-assay, DNA effects (bacterial DNA repair), Assay Code: RE1+, Evaluation Type: Evaluation A (Pre-1980)) is “active; positive”.
With `Nc1c(Cl)cc([N+](=O)[O-])cc1Cl`, the mutagenic call reads like this: (Species/Cell Type: Aspergillus nidulans, Assay Type: Aneuploidy, chromosome aberrations, Assay Code: ASNT, Evaluation Type: Evaluation A (Pre-1980)) “no conclusion”; under setting [2], “no conclusion”; (Species/Cell Type: Hordeum vulgare (barley), Assay Type: Chromosome aberrations, Assay Code: HOC+, Evaluation Type: Evaluation A (Pre-1980)) “active; positive”; (Species/Cell Type: Vicia faba, Assay Type: Chromosome aberrations, Assay Code: VIC+, Evaluation Type: Evaluation A (Pre-1980)) “active; positive”.
Regarding `[Cl][Hg][Cl]`, the mutagenic call runs as follows: under setting [3], “active; positive”; under setting [4], “active; positive”; under setting [5], “active; positive”; (Species/Cell Type: Neurospora crassa, Assay Type: Aneuploidy, chromosome aberrations, Assay Code: NEN-, Evaluation Type: Evaluation A (Pre-1980)) “inactive; negative”; under setting [6], “active; positive”; (Species/Cell Type: Nonhuman, Assay Type: Sister-chromatid exchange (SCE) in vitro, Assay Code: SC2-, Evaluation Type: Evaluation B (Post-1980)) “inactive; negative”. For the same compound, under setting [7], the mutagenic call was “active; positive”.
As to `O=C1c2ccccc2C(=O)C1c1ccc2cc(S(=O)(=O)O)cc(S(=O)(=O)O)c2n1`, the mutagenic call under setting [2] is reported as “no conclusion”.
On to `O[C@@H]1[C@H]2O[C@H]2c2cc3ccc4ccccc4c3cc2[C@H]1O`, for which, for the setting “Species/Cell Type: Chinese hamster lung (V79) cells, Assay Type: Forward gene mutation at the HPRT or ouabain locus, Assay Code: V79+, Evaluation Type: Evaluation A (Pre-1980)”, the mutagenic call was “active; positive”.
Turning to `O=C(OCC1=CCN2CC[C@@H](OC(=O)c3ccc(Cl)cc3)[C@@H]12)c1ccc(Cl)cc1`, the mutagenic call (Species/Cell Type: Allium cepa, Assay Type: Chromosome aberrations, Assay Code: ALC+, Evaluation Type: Evaluation A (Pre-1980)) is “active; positive”.
For the compound `CC1=CC(=C(c2ccc(N)cc2)c2ccc(N)cc2)C=CC1=N`, the mutagenic call under setting [2] is reported as “no conclusion”.
Take `O=C(O)CCCc1ccc(N(CCCl)CCCl)cc1`: the mutagenic call by setting is: (Species/Cell Type: Chinese hamster ovary (CHO) cells, Assay Type: Forward gene mutation at the HPRT locus, Assay Code: CHO+, Evaluation Type: Evaluation B (Post-1980)) “active; positive”; (Species/Cell Type: Drosophila melanogaster, Assay Type: Sex-linked recessive lethal gene mutation, Assay Code: SRL+, Evaluation Type: Evaluation A (Pre-1980)) “active; positive”; (Species/Cell Type: Human lymphocytes, Assay Type: Sister-chromatid exchange (SCE) in vitro, Assay Code: SCL+D, Dose Response: With dose response, Evaluation Type: Evaluation A (Pre-1980)) “active; positive”; under setting [4], “active; positive”; (Species/Cell Type: Human lymphocytes, Assay Type: Sister-chromatid exchange (SCE) in vivo, Assay Code: SCY+, Evaluation Type: Evaluation B (Post-1980)) “active; positive”; (Species/Cell Type: Human, Assay Type: Sister-chromatid exchange (SCE) in vitro, Assay Code: SC1+D, Dose Response: With dose response, Evaluation Type: Evaluation A (Pre-1980)) “active; positive”. The mutagenic call by setting is: under setting [5], “active; positive”; under setting [1], “active; positive”; (Species/Cell Type: Mammalian polychromatic erythrocytes, Assay Type: Micronucleus test, chromosome aberrations, Assay Code: MNT+, Evaluation Type: Evaluation B (Post-1980)) “active; positive”; under setting [6], “active; positive”; (Species/Cell Type: Saccharomyces cerevisiae, Assay Type: Mitotic recombination or gene conversion, Assay Code: YEC+, Evaluation Type: Evaluation A (Pre-1980)) “active; positive”; (Species/Cell Type: Saccharomyces cerevisiae, Assay Type: Reverse gene mutation, Assay Code: YER+, Evaluation Type: Evaluation A (Pre-1980)) “active; positive”. Besides, the call (Species/Cell Type: Nonhuman, Assay Code: CCG+, Evaluation Type: Evaluation A (Pre-1980)) is “active; positive”.
With `CCC1(c2ccccc2)C(=O)N=C(O)NC1=O` (centres undefined), the mutagenic call (Species/Cell Type: Drosophila melanogaster, Assay Type: Sex-linked recessive lethal gene mutation, Assay Code: SRLT, Evaluation Type: Evaluation A (Pre-1980)) was “no conclusion”; the mutagenic call (Species/Cell Type: Mouse, Sex: Male, Assay Type: Sperm morphology, Assay Code: SPI-, Evaluation Type: Evaluation A (Pre-1980)) is “inactive; negative”; the mutagenic call (Species/Cell Type: Nonhuman, Assay Type: Sister-chromatid exchange (SCE) in vivo, Assay Code: SC3T, Evaluation Type: Evaluation B (Post-1980)) was “no conclusion”; the mutagenic call under setting [8] was “inactive; negative”.
On to `COCCl`, for which the call under setting [9] is “active; positive”. Also, the mutagenic call under setting [7] was “active; positive”.
On to `COc1ccc2c(c1)OC(C)(C)[C@@H](c1ccccc1)[C@@H]2c1ccc(OCCN2CCCC2)cc1`, for which the mutagenic call (Species/Cell Type: Human, Sex: Male, Assay Type: Sperm morphology, Assay Code: SPHT, Evaluation Type: Evaluation A (Pre-1980)) is given as “no conclusion”.
Turning to `S=C(NC1CCCCC1)NC1CCCCC1`, the mutagenic call (Species/Cell Type: Fischer rat embryo (RLV/1706) cells, Assay Type: Cell transformation, viral enhanced, Assay Code: CTR+, Evaluation Type: Evaluation A (Pre-1980)) was “active; positive”.
With `O=C1CCC(=O)O1`, the mutagenic call is “inactive; negative” (Species/Cell Type: Escherichia coli polA (W3110 vs P3478), Assay Type: Rec-assay, DNA effects (bacterial DNA repair), Assay Code: RE2-, Evaluation Type: Evaluation A (Pre-1980)); “inactive; negative” (Species/Cell Type: Escherichia coli polA (W3119 vs P3478), Assay Type: Rec-assay, DNA effects (bacterial DNA repair), Assay Code: RE1-, Evaluation Type: Evaluation A (Pre-1980)); “inactive; negative” (Species/Cell Type: Mouse lymphoma (L5178Y) cells, Assay Type: Forward gene mutation at the thymidine kinase (TK) locus, chromosome aberrations, Assay Code: L51-, Evaluation Type: Evaluation A (Pre-1980)); “inactive; negative” under setting [10]; “inactive; negative” under setting [8]; “inactive; negative” (Species/Cell Type: Salmonella typhimurium, Assay Type: Forward and reverse gene mutation, host-mediated assay, Assay Code: HMA-, Evaluation Type: Evaluation A (Pre-1980)). Also, the mutagenic call (Species/Cell Type: Syrian hamster embryo (SHE) cells, Assay Type: Cell transformation, clonal assay, Assay Code: CTC+, Evaluation Type: Evaluation A (Pre-1980)) is “active; positive”. Also, the call under setting [9] was “active; positive”.
Consider `CCCOP(=S)(OCCC)OP(=S)(OCCC)OCCC`, for which the mutagenic call under setting [2] is “no conclusion”; the mutagenic call (Species/Cell Type: Drosophila melanogaster, Assay Type: Sex-linked recessive lethal gene mutation, Assay Code: SRL-, Evaluation Type: Evaluation A (Pre-1980)) was “inactive; negative”; the mutagenic call (Species/Cell Type: Escherichia coli WP2 UVRA, Assay Type: Tryptophan reverse gene mutation, Assay Code: WPU-*, Activation: With metabolic activation, Evaluation Type: Evaluation A (Pre-1980)) was “inactive; negative”; the mutagenic call (Species/Cell Type: Escherichia coli polA (W3119 vs P3478), Assay Type: Rec-assay, DNA effects (bacterial DNA repair), Assay Code: RE1T, Evaluation Type: Evaluation A (Pre-1980)) is listed as “no conclusion”; the mutagenic call (Species/Cell Type: Human diploid fibroblasts, Assay Type: Unscheduled DNA synthesis (UDS) in vitro, DNA effects, Assay Code: UDH-, Evaluation Type: Evaluation A (Pre-1980)) is “inactive; negative”; the mutagenic call under setting [10] was “inactive; negative”. Further, the mutagenic call under setting [8] is “inactive; negative”.
On to `O=[N+]([O-])c1ccc(-c2cscn2)o1`, for which the mutagenic call runs as follows: under setting [3], “active; positive”; under setting [11], “active; positive”; (Species/Cell Type: Syrian hamster embryo (SHE) cells, Assay Type: Cell transformation, clonal assay, Assay Code: CTC-, Evaluation Type: Evaluation A (Pre-1980)) “inactive; negative”. The call under setting [9] is “active; positive”.
With `C[n+]1c(-c2ccc(N)cc2)c2cc(N)ccc2c2ccc(N)cc21`, the mutagenic call under setting [11] is “active; positive”.

The record behind these values is PubChem BioAssay AID1259408 (Genetic Toxicology Data Bank (GENE-TOX), 2018).
